Biological target: T1, Prostaglandin G/H synthase 2 (Homo sapiens, UniProt P35354)
T1 sequence (P35354 whole entry): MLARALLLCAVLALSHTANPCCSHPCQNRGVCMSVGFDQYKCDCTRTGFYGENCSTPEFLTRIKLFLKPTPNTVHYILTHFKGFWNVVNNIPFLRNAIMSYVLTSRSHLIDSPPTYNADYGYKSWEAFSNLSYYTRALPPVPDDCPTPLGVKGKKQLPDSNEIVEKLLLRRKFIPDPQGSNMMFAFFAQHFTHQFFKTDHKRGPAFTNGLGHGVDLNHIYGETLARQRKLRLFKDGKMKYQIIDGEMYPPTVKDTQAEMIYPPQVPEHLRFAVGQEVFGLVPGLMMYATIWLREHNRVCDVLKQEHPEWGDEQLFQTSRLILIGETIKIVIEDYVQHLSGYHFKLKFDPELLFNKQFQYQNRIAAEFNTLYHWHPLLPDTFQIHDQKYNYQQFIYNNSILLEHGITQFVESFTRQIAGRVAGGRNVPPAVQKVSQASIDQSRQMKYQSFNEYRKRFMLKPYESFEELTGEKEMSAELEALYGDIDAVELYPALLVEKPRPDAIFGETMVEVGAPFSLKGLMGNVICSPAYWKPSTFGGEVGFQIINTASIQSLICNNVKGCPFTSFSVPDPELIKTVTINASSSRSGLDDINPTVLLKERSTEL

| Structure (SMILES) | IC50 [nM] | IC50 (read-out: IC50) [nM] |
| --- | --- | --- |
| CS(=O)(=O)c1ccc(-c2[nH]c3ccc(Br)cc3c2-c2ccccc2)cc1 | 1.41 | – |
| Cc1ccc2[nH]c(-c3ccc(S(C)(=O)=O)cc3)c(-c3ccccc3)c2c1 | 0.28 | – |
| CC(=O)NS(=O)(=O)c1ccc(-c2[nH]c3ccccc3c2-c2ccccc2)cc1 | – | 0.18 |
| Cc1ccc(-c2c(-c3ccc(S(N)(=O)=O)cc3)[nH]c3ccccc23)cc1 | – | 0.07 |
| CS(=O)(=O)c1ccc(-c2[nH]c3ccccc3c2-c2ccccc2)cc1 | 0.6 | – |
| NS(=O)(=O)c1ccc(-c2[nH]c3ccc(Cl)cc3c2-c2ccccc2Cl)cc1 | – | 100 |
| COc1ccc(-c2c(-c3ccc(S(C)(=O)=O)cc3)[nH]c3ccccc23)cc1 | 0.02 | – |
| NS(=O)(=O)c1ccc(-c2[nH]c3ccccc3c2-c2ccccc2)cc1 | 0.09 | – |
| NS(=O)(=O)c1ccc(-c2[nH]c3ccccc3c2-c2ccc(F)cc2)cc1 | – | 5.15 |
| CS(=O)(=O)c1ccc(-c2[nH]c3ccccc3c2-c2ccc(Cl)cc2)cc1 | 146 | – |
| CS(=O)(=O)c1ccc(-c2[nH]c3ccccc3c2-c2ccc(Br)cc2)cc1 | 0.37 | – |
| CS(=O)(=O)c1ccc(-c2[nH]c3ccc(Cl)cc3c2-c2ccccc2Cl)cc1 | – | 10 |
| Cc1ccc(-c2c(-c3ccc(S(C)(=O)=O)cc3)[nH]c3ccccc23)cc1 | 0.09 | – |
| NS(=O)(=O)c1ccc(-c2[nH]c3ccccc3c2-c2ccc(O)cc2)cc1 | 6.44 | – |
| CS(=O)(=O)c1ccc(-c2[nH]c3ccc(F)cc3c2-c2ccccc2)cc1 | – | 5 |
| Cc1ccc(-c2c(-c3ccc(S(C)(=O)=O)cc3)[nH]c3ccccc23)cc1C | – | 0.17 |

Next, values leading:

| IC50 [nM] | IC50 (read-out: IC50) [nM] | Structure (SMILES) |
| --- | --- | --- |
| 0.14 | – | NS(=O)(=O)c1ccc(-c2[nH]c3ccc(Cl)cc3c2-c2ccccc2)cc1 |
| – | 3.13 | NS(=O)(=O)c1ccc(-c2[nH]c3ccc(Cl)cc3c2-c2cccc(Cl)c2)cc1 |
| 0.54 | – | NS(=O)(=O)c1ccc(-c2[nH]c3ccc(Cl)cc3c2-c2ccc(Cl)cc2)cc1 |
| – | 2 | NS(=O)(=O)c1ccc(-c2[nH]c3ccc(F)cc3c2-c2ccccc2)cc1 |
| – | 0.8 | CS(=O)(=O)c1ccc(-c2[nH]c3ccc(Cl)cc3c2-c2cccc(Cl)c2)cc1 |
| – | 5 | NS(=O)(=O)c1ccc(-c2[nH]c3ccc(Br)cc3c2-c2ccccc2)cc1 |
| – | 33.5 | NS(=O)(=O)c1ccc(-c2[nH]c3ccccc3c2-c2ccc(Cl)cc2)cc1 |
| 1.46 | – | Cc1ccc(-c2c(-c3ccc(S(N)(=O)=O)cc3)[nH]c3ccccc23)cc1C |
| – | 85.1 | CS(=O)(=O)c1ccc(-c2[nH]c3ccc(Cl)cc3c2-c2ccc(Cl)cc2)cc1 |
| 0.02 | – | Cc1ccc2[nH]c(-c3ccc(S(N)(=O)=O)cc3)c(-c3ccccc3)c2c1 |

— ChEMBL document CHEMBL1156674, “Exploration of physicochemical properties and molecular modelling studies of 2-sulfonyl-phenyl-3-phenyl-indole analogs as cyclooxygenase-2 inhibitors” (Eur J Med Chem, 2008)
